In patent US20240066027A1 (DOMAIN THERAPEUTICS, priority 2020, published 2024):
Counter-ions that a name gives are not always drawn.

Target: T1, human PAR-2 (hPAR-2) receptor expressed in HEK-293 T cells in an endogenous manner (Homo sapiens, UniProt P55085)
T1 construct: human PAR-2 (hPAR-2) receptor expressed in HEK-293 T cells in an endogenous manner; endogenous in cells; host or cells: HEK-293 T cells
T1 sequence (P55085 26-397): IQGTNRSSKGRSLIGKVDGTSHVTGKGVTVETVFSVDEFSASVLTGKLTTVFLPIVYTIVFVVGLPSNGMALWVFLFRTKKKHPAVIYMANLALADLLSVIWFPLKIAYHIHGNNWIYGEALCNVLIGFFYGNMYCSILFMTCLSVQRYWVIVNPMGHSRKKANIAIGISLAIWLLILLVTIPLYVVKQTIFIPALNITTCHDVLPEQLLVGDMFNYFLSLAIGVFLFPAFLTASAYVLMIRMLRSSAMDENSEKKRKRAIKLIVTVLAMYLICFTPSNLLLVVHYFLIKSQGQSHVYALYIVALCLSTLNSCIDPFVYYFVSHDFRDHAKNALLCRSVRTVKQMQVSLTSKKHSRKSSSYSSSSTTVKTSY
Experiment: In vitro human PAR-2 functional antagonist activity using calcium assays (Fluo4AM, FLIPR Tetra)
Type: cell-based
Details: HEK-293 T cells stimulated by an EC80 of the 2-Furoyl-LIGRLO-NH2 peptide after 10 min incubation with compound; 20 concentrations, duplicate, two independent experiments
Description: In vitro human PAR-2 functional antagonist activity using calcium assays
Examples of the present invention were tested successively for their agonist and antagonist activities on human PAR-2 (hPAR-2) receptor expressed in HEK-293 T cells in an endogenous manner. Compounds exert agonist activity if, by themselves in absence of the 2-Furoyl-LIGRLO-NH2 peptide (selective hPAR-2 agonist), they activate PAR-2; they exert antagonist activity if they decrease the action of the 2-Furoyl-LIGRLO-NH2 peptide on the receptor. The assay used to determine compound activity is based on calcium measurement.
Cell Culture: HEK-293 T cells were maintained in Dulbecco's Modified Eagle's Medium supplemented with 10% Foetal Calf Serum, 1% Penicillin/Streptomycin at 37° C./5% CO2. Flasks for tests (F75) are seeded with 6e+06 cells 24 h before the experiment at 37° C./5% CO2.
Calcium assay: Receptor activity was detected by changes in intracellular calcium measured using the fluorescent Ca^2+ sensitive dye, Fluo4AM (Molecular Probes).
The day of the assay, medium was replaced by assay buffer (HBSS 1× (Gibco 14175-053), Hepes 20 mM, MgSO4-7H2O 1 mM, Na2CO3 3.3 mM, CaCl2-2H2O 1.3 mM, 0.5% BSA, Probenecid 2.5 mM, 0.1 mg/mL Pluronic Acid) and complemented with 1 μM Fluo4AM and cells were incubated during 1:30 h at 37° C.
Cells were then detached, resuspended in assay buffer and seeded in 384 wells, transparent-flat bottom black walled plates (2e+04 cells per well). Plates were incubated at +22° C. for 20 min. Compounds stock solutions were prepared in 100% DMSO and dilutions in test buffer were carried out in polypropylene plates with a digital dispenser (D300e, Tecan). Compounds were added to the cells and intracellular Ca^2+ measurements were collected at the same time on FLIPR Tetra® (Molecular Devices) with specific filters (Exc: 470-495 nm/Em: 515-575 nm).
Agonist and antagonist activities of compounds were consecutively evaluated on the same cell plate. Agonist activity was first measured after 10 min incubation with the compound alone. Then, cells were stimulated by an EC80 of the 2-Furoyl-LIGRLO-NH2 peptide and fluorescence was recorded for an additional 5 min. EC80 of the 2-Furoyl-LIGRLO-NH2 peptide was the concentration giving 80% of the maximal 2-Furoyl-LIGRLO-NH2 response. Agonist activities are evaluated in comparison to basal signals evoked by assay buffer or maximal 2-Furoyl-LIGRLO-NH2 response. […] Antagonist activities are evaluated in comparison to basal signals evoked by assay buffer or EC80 of 2-Furoyl-LIGRLO-NH2 alone.

IC50 [µM] | Compound
0.02 to 10 | Cc1nn(-c2ccc(Cl)c(F)c2)c2ccc(C(=O)N3CCNC(=O)C3(C)C)nc12 [Example 71, 4-(1-(4-chloro-3-fluorophenyl)-3-methyl-1H-pyrazolo[4,3-b]pyridine-5-carbonyl)-3,3-dimethylpiperazin-2-one]
0.02 to 10 | CC1(C)C(=O)NCCN1C(=O)c1ccc2c(n1)c(C1CCOCC1)nn2-c1ccc(Cl)c(F)c1 [Example 72, 4-(1-(4-chloro-3-fluorophenyl)-3-(tetrahydro-2H-pyran-4-yl)-1H-pyrazolo[4,3-b]pyridine-5-carbonyl)-3,3-dimethylpiperazin-2-one]
0.02 to 10 | CC(C)Cc1nn(-c2ccc(Cl)cc2Cl)c2ccc(C(=O)N3CCNC(=O)C3(C)C)nc12 [Example 73, 4-(1-(2,4-dichlorophenyl)-3-isobutyl-1H-pyrazolo[4,3-b]pyridine-5-carbonyl)-3,3-dimethylpiperazin-2-one]
> 10 | CC(C)Cc1nn(-c2ccccc2Cl)c2ccc(C(=O)N3CCNC(=O)C3(C)C)nc12 [Example 74, 4-(1-(2-chlorophenyl)-3-isobutyl-1H-pyrazolo[4,3-b]pyridine-5-carbonyl)-3,3-dimethylpiperazin-2-one]
0.02 to 10 | CC(C)(C)c1nn(-c2ccc(Cl)c(F)c2)c2ccc(C(=O)N3CCNC(=O)C3(C)C)nc12 [Example 75]
0.02 to 10 | CC1(C)C(=O)NCCN1C(=O)c1ccc2c(n1)c(C1CCCC1)nn2-c1ccc(Cl)c(F)c1 [Example 76, 4-(1-(4-chloro-3-fluorophenyl)-3-cyclopentyl-1H-pyrazolo[4,3-b]pyridine-5-carbonyl)-3,3-dimethylpiperazin-2-one]
0.02 to 10 | CC(C)(C)c1nn(-c2ccc(Cl)c(F)c2)c2ncc(C(=O)N3CCNC(=O)C3(C)C)cc12 [Example 80, 4-(3-(tert-butyl)-1-(4-chloro-3-fluorophenyl)-1H-pyrazolo[3,4-b]pyridine-5-carbonyl)-3,3-dimethylpiperazin-2-one]
> 10 | Cc1cc2c(nc1C(=O)N1CCNC(=O)C1(C)C)c(CC(C)C)nn2-c1ccc(Cl)c(F)c1 [Example 81]
0.02 to 10 | CC(C)Cn1nc(-c2ccc(Cl)c(F)c2)c2ccc(C(=O)N3CCNC(=O)C3(C)C)cc21 [Example 83, 4-(3-(4-chloro-3-fluorophenyl)-1-isobutyl-1H-indazole-6-carbonyl)-3,3-dimethylpiperazin-2-one]
0.02 to 10 | CC(C)Cc1nn(-c2ccc(Cl)cc2)c2ccc(C(=O)N3CCNC(=O)C3(C)C)nc12 [Example 85, 4-(1-(4-chlorophenyl)-3-isobutyl-1H-pyrazolo[4,3-b]pyridine-5-carbonyl)-3,3-dimethylpiperazin-2-one]
0.02 to 10 | Cc1cc(N2CCN(C(=O)c3ccc4c(-c5ccc(Cl)c(F)c5)nn(C(C)(C)C)c4n3)C(C)(C)C2)nc(C)c1C(=O)O [Example 87, 6-(4-(1-(tert-butyl)-3-(4-chloro-3-fluorophenyl)-1H-pyrazolo[3,4-b]pyridine-6-carbonyl)-3,3-dimethylpiperazin-1-yl)-2,4-dimethylnicotinic acid]
> 10 | CC(C)Cc1nn(-c2ccc(Cl)c(F)c2)c2ccc(C(=O)N3CCNC(=O)C3)nc12 [Example 88, 4-(1-(4-chloro-3-fluorophenyl)-3-isobutyl-1H-pyrazolo[4,3-b]pyridine-5-carbonyl)piperazin-2-one]

The remaining lines, values behind:

Compound | IC50 [µM]
COC(=O)c1c(C)cc(N2CCN(C(=O)c3ccc4c(n3)c(CC(C)C)nn4-c3ccc(Cl)c(F)c3)C(C)(C)C2)nc1C [Example 64, methyl 6-(4-(1-(4-chloro-3-fluorophenyl)-3-isobutyl-1H-pyrazolo[4,3-b]pyridine-5-carbonyl)-3,3-dimethylpiperazin-1-yl)-2,4-dimethylnicotinate] | > 10
Cc1cc(N2CCN(C(=O)c3ccc4c(n3)c(CC(C)C)nn4-c3ccc(Cl)c(F)c3)C(C)(C)C2)nc(C)c1C(=O)O [Example 65, 6-(4-(1-(4-chloro-3-fluorophenyl)-3-isobutyl-1H-pyrazolo[4,3-b]pyridine-5-carbonyl)-3,3-dimethylpiperazin-1-yl)-2,4-dimethylnicotinic acid] | 0.02 to 10
CC(C)Cc1nn(-c2cccc(Cl)c2)c2ccc(C(=O)N3CCNC(=O)C3(C)C)nc12 [Example 67, 4-(1-(3-chlorophenyl)-3-isobutyl-1H-pyrazolo[4,3-b]pyridine-5-carbonyl)-3,3-dimethylpiperazin-2-one] | 0.02 to 10
CC(C)Cc1nn(-c2ccc(Cl)c(F)c2)c2ccc(C(=O)N3CCC(C(=O)O)C(C)(C)C3)nc12 (stereo not drawn) [Example 69, 1-(1-(4-chloro-3-fluorophenyl)-3-isobutyl-1H-pyrazolo[4,3-b]pyridine-5-carbonyl)-3,3-dimethylpiperidine-4-carboxylic acid] | > 10
CC(C)Cc1nn(-c2ccc(Cl)c(F)c2)c2ccc(C(=O)N3CCC4(CC3)NC(=O)NC4=O)nc12 [Example 70, 8-(1-(4-chloro-3-fluorophenyl)-3-isobutyl-1H-pyrazolo[4,3-b]pyridine-5-carbonyl)-1,3,8-triazaspiro[4.5]decane-2,4-dione] | > 10
CC1(C)C(=O)NCCN1C(=O)c1ccc2c(n1)c(C1CC1)nn2-c1ccc(Cl)c(F)c1 [Example 77, 4-(1-(4-chloro-3-fluorophenyl)-3-cyclopropyl-1H-pyrazolo[4,3-b]pyridine-5-carbonyl)-3,3-dimethylpiperazin-2-one] | 0.02 to 10
CC(C)Cc1nn(Cc2ccc(Cl)c(F)c2)c2ccc(C(=O)N3CCNC(=O)C3(C)C)nc12 [Example 78, 4-(1-(4-chloro-3-fluorobenzyl)-3-isobutyl-1H-pyrazolo[4,3-b]pyridine-5-carbonyl)-3,3-dimethylpiperazin-2-one] | > 10
CC(C)Cn1cc(-c2ccc(Cl)cc2Cl)c2ccc(C(=O)N3CCNC(=O)C3(C)C)nc21 [Example 84, 4-(3-(2,4-dichlorophenyl)-1-isobutyl-1H-pyrrolo[2,3-b]pyridine-6-carbonyl)-3,3-dimethylpiperazin-2-one] | 0.02 to 10
CC(C)Cn1cc(C2=CCN(C)CC2)c2ccc(C(=O)N3CCNC(=O)C3(C)C)nc21 [Example 91, 4-(1-isobutyl-3-(1-methyl-1,2,3,6-tetrahydropyridin-4-yl)-1H-pyrrolo[2,3-b]pyridine-6-carbonyl)-3,3-dimethylpiperazin-2-one hydrochloride] | > 10
CC(C)Cc1nn(-c2ccc(Cl)c(F)c2)c2ccc(C(=O)N3CCC4(CC3)C(=O)NCN4c3ccccc3)nc12 [Example 94, 8-(1-(4-chloro-3-fluorophenyl)-3-isobutyl-1H-pyrazolo[4,3-b]pyridine-5-carbonyl)-1-phenyl-1,3,8-triazaspiro[4.5]decan-4-one] | > 10
Cc1cc(N2CCN(C(=O)c3ccc4c(-c5ccc(Cl)c(F)c5)cn(CC(C)C)c4n3)C(C)(C)C2)nc(C)c1C(=O)O [Example 95, 6-(4-(3-(4-chloro-3-fluorophenyl)-1-isobutyl-1H-pyrrolo[2,3-b]pyridine-6-carbonyl)-3,3-dimethylpiperazin-1-yl)-2,4-dimethylnicotinic acid] | < 0.02
CC(C)n1cc(-c2ccc(Cl)c(F)c2)c2ccc(C(=O)N3CCNC(=O)C3(C)C)nc21 [Example 96, 4-(3-(4-chloro-3-fluorophenyl)-1-isopropyl-1H-pyrrolo[2,3-b]pyridine-6-carbonyl)-3,3-dimethylpiperazin-2-one] | < 0.02
